US8933066B2, “Compounds for the treatment of hepatitis C” (priority 2011, dated 2015)
Like-named read-outs stand apart in the source and are kept apart here.

Tested on: HCV pseudoparticles (genotype 1a HCV E1 and E2 envelope, H77C isolate)
Assay: HCV pseudoparticle infection assay (luciferase reporter, entry into Huh7 cells)
Assay type: cell-based
Conditions: Hepatitis C virus, Huh-7, 48 h
[1] = read-out: Activity Range (EC50)

| SMILES | EC50 [1] [nM] | EC50 [nM] |
| --- | --- | --- |
| FC(F)(F)COc1nc2nc(n1)Nc1cnn(c1)CCNCCCOc1ccc(cc1)CN2 [Example 2006] | 0.1 to 500 | – |
| FC(F)(F)COc1nc2nc(n1)Nc1cnn(c1)CCOCCOCCOc1ccc(cc1)CN2 [Example 2002] | 0.1 to 500 | – |
| FC(F)(F)COc1nc2nc(n1)Nc1cnn(c1)CCCCCCOc1ccc(cc1)CN2 [Example 3001] | 0.1 to 500 | – |
| CC(C)(C)NC(=O)N1CCCOc2ccc(cc2)CNc2nc(nc(OCC(F)(F)F)n2)Nc2cnn(c2)CC1 [Example 2007] | 0.1 to 500 | 105 |
